From a melting point compilation (Tetko et al.; mined from patent text by program, amines drawn as free bases though some values may be those of a salt)

melting point	SMILES
72 to 74 °C	COC(=O)[C@H](CS)NC(=O)[C@H](CO)NC(=O)OC(C)(C)C
69 to 71 °C	COc1cccc(CSCCNC(=O)c2c([N+](=O)[O-])cccc2[N+](=O)[O-])c1
152 to 154 °C	Cc1cc(C)c2ncc(N)c(-c3ccccc3Cl)c2c1
91 to 93 °C	CCC(=CC(CSc1nccn1C)=NO)C(C)[N+](=O)[O-] (stereo not given)
112 to 114 °C	S=C(NCCCCN(Cc1ccc(Cl)c(Cl)c1)c1ccccn1)NCCCn1ccnc1
237 to 239 °C	CC(C)C(C(=O)O)N(C)S(=O)(=O)c1ccc(-c2ccc(NC(=O)c3cc4ccccc4o3)cc2)cc1 (stereo not given)
165 °C	Nc1nc2ccccc2c2c1nc(CCC1CCCC1)n2CCOc1ccccc1
134 to 137 °C	CSCCCC(=O)NNC(=O)N1Cc2ccccc2Oc2ccc(Cl)cc21
36 to 37 °C	CCOC(=O)C=Cc1ccc(C)nc1
154 to 161 °C	C[C@@H](n1cnc2cc(-c3ccc(C(=N)NCCN)cc3)sc2c1=O)[C@](O)(Cn1cncn1)c1ccc(F)cc1F
224 °C	C=C(C)C=NNC1=NS(=O)(=O)c2ccccc21
183 to 186 °C	C(=C\c1cc(/C=C/c2ccc3[nH]ccc3c2)n[nH]1)/c1cccc(OCc2ccccn2)c1
104 to 106 °C	CCOc1nsnc1O
223 to 224 °C	CCCCNc1cc(C(N)=O)cc(S(N)(=O)=O)c1Oc1ccccc1
160 to 162 °C	COc1cccc(CN2CCN(C)CC2C2=NCCN2)c1OC (stereo not given)
149 to 150 °C	CCOC(=O)C1=C(CO)NC(CF)=C(C(=O)OCC)C1c1cccc([N+](=O)[O-])c1 (stereo not given)
180 to 182 °C	Cc1oc2ccccc2c1C(=O)NCc1ccc2c(Br)c(OCC#N)ccc2c1
> 260 °C	Oc1ncnc2[nH]c(-c3ccncc3)cc12
175 to 177 °C	CCOC(=O)c1cnc2sc(-c3ccc(OC)cc3)c(CN(C)Cc3ccccc3)c2c1O
149 to 150 °C	CCOCc1c[nH]c(=O)c(N)c1Sc1cc(C)cc(C)c1
127 to 128 °C	O=C(CCCCCNC(=O)CCc1ccco1)NO
175 °C	COC(=O)c1ccc2c(c1)c1cc(-c3ccc(CN4CCOCC4)cc3)c(=O)n(C)c1n2C
131 to 133 °C	CN1CCN(CCCNc2cc(Oc3ccc4c(C(=O)Nc5cc(C(C)(C)C)nn5-c5ccc(F)cc5)cccc4c3)ncn2)CC1

melting point	SMILES
82 to 88 °C	CNC(=S)C1(c2cccnc2)CCCCC1=CCOc1ccc(O)cc1 (stereo not given)
168 to 169 °C	FC(F)(F)c1n[nH]c2ccc(Br)cc12
173 to 174 °C	CC1=C(C#CC2=C(/C=C/C(C)=C/C(=O)O)CCC2)C(C)(C)CCC1
84 to 88 °C	Nc1ccc(Cc2ccc(N)c(C(F)(F)F)c2)cc1C(F)(F)F
263 °C	COc1ccc(S(=O)(=O)N2C(=O)C(c3ccccc3OC)(N3CCc4ccccc4[C@H]3C(=O)N(C)C)c3cc(Cl)ccc32)c(OC)c1 (stereo not given in full)
168 to 170 °C	CS(=O)(=O)c1ccc(-c2sc(C(F)(F)F)nc2-c2ccc(F)cc2)cc1
105 °C	CCOc1cc(OCC)c([N+](=O)[O-])c(OCC)c1[N+](=O)[O-]
216 to 218 °C	CNC(=O)C1CCC(c2csc(NC(=N)N)n2)C1 (stereo not given)
176 to 178 °C	CCCOc1ccccc1C(=O)Nc1sccc1C(N)=O
283 to 286 °C	CC12CCC3c4ccc(C(=O)O)cc4CCC3C1CCC2C(=O)c1ccc(S(C)(=O)=O)cc1 (stereo not given)
198 to 200 °C	O=c1c2cc(F)c(N3CCCC3)cc2n(CC2CC2)c(=O)n1OCc1ccccc1
194 to 195 °C	CCOCc1nc2c(N)nc(C)c(C)c2n1CC1(O)CCCCC1
106 to 108 °C	CC(C(=O)O)c1ccc(Oc2ccccc2F)cc1 (stereo not given)
125 °C	CCSC1(CCO)C(=O)Nc2ccc(F)cc21 (stereo not given)
73 to 74 °C	Cc1oc(-c2ccccc2)nc1COc1ccc(CCCC#N)cc1
114 to 116 °C	CCOC(=O)c1c2ccc(Cl)cc2c(-c2ccccc2)n1CCO
139 to 140 °C	COC(=O)c1c(-c2ccc3ccccc3c2)ccc2ccccc12
80 to 82 °C	CN(CCc1ccccc1)CCc1ccc(Nc2ncc3c(n2)-c2ccccc2C(c2cccc(Br)c2)C3)cc1 (stereo not given)
202 to 205 °C	Cc1cc(C)n(C)c(=O)c1C#N
198 to 205 °C	Cn1cc2c(nc(NC(=O)Nc3ccc(CC(=O)NCCCNC(=O)OC(C)(C)C)cc3)n3nc(-c4ccco4)nc23)n1
202 to 204 °C	Cc1c(NC(=O)c2ccc(C#CC3(O)CCC3)cc2)ccc2cc(CNCC3CCOCC3)n(C)c12
205 to 206 °C	Cc1ccc(S(=O)(=O)Nc2nc(-c3ccc(Cl)c(Cl)c3)cs2)cc1
182 to 184 °C	CC(C)Oc1ccccc1-c1ncc(C#N)c(=O)[nH]1

melting point	SMILES
68 °C	O=C(O)C(Cl)(Cl)CCCCCCCCCCCCS(=O)c1ccccc1 (stereo not given)
89 to 90 °C	CN(C)C=CC(=O)c1ccsc1
170 to 173 °C	COC(=O)c1c(-c2ccc(F)cc2)c2c3ccccc3ccn2c1C(C)C
220 to 228 °C	COC[C@@H]1C(=O)Nc2ccc(C(F)(F)F)cc2C[C@@H]1c1ccc(OC)cc1 (relative stereo)
225 to 231 °C	O=C1NC(=O)N2Cc3ccccc3CC12 (stereo not given)
138 to 139 °C	NOCc1cn(C(c2ccccc2)(c2ccccc2)c2ccccc2)cn1
290 °C	CCOC(=O)c1cn(C)c2cnc3cc(F)c(N4CCNC(c5ccc(C)c(C)c5)C4)cc3c2c1=O (stereo not given)
90 to 92 °C	CC(=O)NCCCC(=O)c1ccc(Cl)cc1CCC(=O)O
191 to 194 °C	Cn1c2ccccc2c2nc3c(CO)cccc3nc21
188 to 189 °C	CC(=O)N1CC(=O)N(CC(N)=O)C1(C)C
168 °C	CC(=O)OC1CSC(Oc2ccc(-c3cncnc3)nc2Cl)C(OC(C)=O)C1OC(C)=O (stereo not given)
116 to 119 °C	O=C(CCO)Cc1cccc(OCc2ccc3ccccc3n2)c1
51 to 53 °C	Oc1ccc(OCCCCI)cc1
322 to 324 °C	O=C(O)c1cn2c3c(c(Cl)c(F)cc3c1=O)SCC2
73 to 75 °C	CN1C(=O)[C@@H](CN2CCCCC2)C[C@H]1c1ccc(-c2ccccc2Cl)s1
145 to 146 °C	Cc1nc(-c2cccc(CN(C(=O)Nc3ccc(Br)cc3)c3ccccc3)c2)no1
123 to 124 °C	COc1cc(COc2nn(-c3ccccc3)cc2CCO)ccc1OCc1nc(-c2ccco2)oc1C
197 to 199 °C	COc1cc(N2CCOCC2)ccc1Nc1nc(Nc2ccc3c(c2OC)CCCC(=O)N3C)ncc1Cl
188 to 190 °C	CC1CC(=O)NN=C1c1ccc2c(c1)OCC(=O)N2C (stereo not given)
114 to 116 °C	Clc1ccc2nc(-c3ccccc3)cc(Cl)c2c1
228 to 230 °C	N#Cc1cc(S(=O)(=O)C(F)(F)F)[nH]c1-c1ccc(Cl)cc1
81 to 81.5 °C	OC(CCN1CCN(c2ccccn2)CC1)COc1cccc(C(F)(F)F)c1 (stereo not given)
132 °C	Cc1noc(NS(=O)(=O)c2ccc(-c3ccccc3)s2)c1Br

melting point	SMILES
116 to 118 °C	C=C1N(C)C(=O)OC12CCN(CCCN1c3ccccc3Sc3ccc(C(F)(F)F)cc31)CC2
62 °C	CC(C)(CCOc1ccc(Cl)cc1Cl)C(=O)Cn1cncn1
130 to 133 °C	Fc1ccc(-c2cc(Cl)c3cc(F)ccc3n2)cc1
> 250 °C	NS(=O)(=O)c1ccc(NN=C2C(=O)Nc3cc(Br)ccc32)cc1
162 to 163 °C	COc1ccc2c(c1)NC(=O)C(Cl)CC2 (stereo not given)
161 to 163 °C	COc1ccc(NC(=O)c2ccccc2-c2cccc(F)c2)cc1
153 to 154 °C	CCCc1ccc(S(=O)(=O)NN2CCN(C)CC2)cc1
74 to 76 °C	FCc1cccc(C#CCCc2nc3ccccc3s2)n1
75 °C	COC(=O)c1ccc(-c2ccc3c(c2)CCN(C2CCN(C4CCC4)C2)C3=O)c(F)c1 (stereo not given)
149 to 151 °C	COc1cc2c(cc1OC)CN(c1nc(Cl)nc(N3CCc4cc(OC)c(OC)cc4C3)n1)CC2
180 to 183 °C	CC(=O)N1C(C)(C)CN(CCN2CC(C)(C)N(C(C)=O)C(C)(C)C2=O)C(=O)C1(C)C
68 to 70 °C	CCOC(=O)Cc1ccc2c(c1)sc1cc(Cl)ccc12
124 to 126 °C	CCCc1nc2ccc(C#N)cc2n1Cc1ccccc1Cl
235 to 237 °C	CCOCc1nc2c(N)nc3ccccc3c2n1CC1CC(c2ccccc2)=NO1 (stereo not given)
48 to 52 °C	O=[N+]([O-])c1cc(OCc2ccccc2)ccc1CCO
109 °C	O=C(NCCc1ccccn1)N(c1ccccc1)c1ccccc1
226 to 227 °C	CC(=O)NC1(CNS(=O)(=O)c2ccccc2)CCN(C(=O)OC(C)(C)C)CC1
191 to 193 °C	O=[N+]([O-])c1ccc2c(c1)S(=O)(=O)NCN2CC(F)(F)F
106 °C	CCOC(=O)C(=CNc1scc(C)c1C(=O)OC)C(=O)OCC
200 to 202 °C	CCCC(=O)Oc1ccc2[nH]c(=O)c(-c3nnn(Cc4cccc(OCc5ccc6ccccc6n5)c4)n3)cc2c1
214 to 215 °C	Cc1ccc(NC(=O)c2ccsc2)cc1-c1nc(N(C)C)nc2c1CNC(=O)N2c1c(F)cccc1F
83 to 85 °C	O=C1CSCN1CCCCN1CCN(c2ccc(F)cc2)CC1
182 to 185 °C	CC1NC(=O)NN=C1c1ccc(NCCO)cc1 (stereo not given)

SMILES	melting point
CCOC(=O)Nc1ccc2c(c1)C(c1ccccc1Cl)SCCC(=O)N2 (stereo not given)	229 to 231 °C
CCCN1CC(C(=O)OC)CC2c3cccc4[nH]cc(c34)CC21 (stereo not given)	202 to 204 °C
Cc1ccc2c(c1)C1CNCCC1N2 (stereo not given)	73 to 75 °C
CC(=O)N1N=C(c2ccc(N)cc2)c2cc3c(cc2C=C1C)OCO3	175 to 180 °C
CC12CCC3C(CC(O)C4(O)CC=CCC34C)C1CCC2=O (stereo not given)	183 to 186 °C
CCOP(=O)(OCC)SCc1ccc(-c2nc(S)c3cc(Br)ccc3n2)cc1	196 to 199 °C
O=[N+]([O-])N=C1SCCN1Cc1ccc(Cl)nc1	137 to 138 °C
O=C(NC(=O)c1c(F)cccc1F)Nc1ccc(SC(F)(F)C(F)Cl)cc1F (stereo not given)	172 to 173 °C
